pIC50: −log10 of the molar value. “Also recorded” adds a separate entry of the source. Like-named read-outs stand apart in the source and are kept apart here.
What was measured:
CXXC5-DVL interaction [1] = biological target: T1, CXXC5-DVL interaction (Homo sapiens, UniProt O14640); test: in vitro CXXC5-DVL PPI inhibition screening assay (FITC-tagged PTD-DBMP on DVL-PDZ, fluorescence); format: binding; conditions: for inhibition at 30 µM: read-out: CXXC5-DVL inhibitory activity (%)
T1 sequence (O14640 251-323 limits assumed): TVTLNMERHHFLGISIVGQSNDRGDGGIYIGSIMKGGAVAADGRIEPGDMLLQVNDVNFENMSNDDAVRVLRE
Protocol: Screening for compounds that inhibit the CXXC5-DVL interaction. […] CELL. DEATH. DIFFER. […] After the addition of 10 μM FITC-tagged PTD-DBMP to each well, each compound in the chemical library or control (DMSO) was treated to the well at a final concentration of 30 μM. The fluorescence intensity was measured using a Fluorstar Optima microplate reader (BGM Lab Technologie, Ortenberg, Germany) and normalized as follows: “(‘compounds-treated group’−‘blank’)/(‘DMSO-treated control’−‘blank’)*100”.

MCD-induced NASH mice = test: MCD diet-induced NASH mice; format: in vivo; conditions: MCD diet 7 weeks, then 25 mg/kg daily oral gavage 3 weeks
Protocol: NASH study. Eight-week-old wild-type male C57BL/6N mice (KOATECH, Seoul, Korea) were fed on the methionine-choline deficient (MCD) diet for 7 weeks, followed by treatment with vehicle, A3334, A3051, or I3O of (25 mg kg^−1) sitagliptin (25 mg kg^−1) for another 3 weeks via daily oral gavage.
Collagen staining. 4 µm-liver tissues sections were stained using two common collagen staining methods. For Masson's trichrome staining, slides were fixed in Bouin's solution for 1 h. After incubation in Weigert's iron hematoxylin solution for 10 min, the slides were stained with Biebrich Scarlet-Acid Fuchsin and Aniline blue for 5 min. The collagen fibers were stained blue and the nuclei were stained black. For picrosirius red staining, sections were stained with Weigert's solution for 8 min and picrosirius red for 1 h. The collagen fibers were stained red with blue nuclei.

HFD-fed mice = test: HFD-induced obesity/diabetes mice, 5-day oral courses at weeks 8/9 and 12; format: in vivo; conditions: HFD mice; for levels of GTT/ITT, total cholesterol, fasting glucose, triglyceride, FFAs in serum: A3334 25, metformin 100, sitagliptin 50 mpk (FIG. 38B-38F); for persistence of fasting glucose control after end of treatment / fasting glucose level: p.o. daily 5 days at weeks 8/9 and 12; for persistence of fasting glucose control after end of treatment: A3334 25, sitagliptin 50, metformin 100 mg/kg; for fasting glucose level: A3334, A3051, I3O 25, sitagliptin 50, metformin 100 mg/kg
Source text: Animals. The generation of Cxxc5^−/− mice has been described previously. Cxxc5 heterozygous mice were intercrossed for four generations to obtain littermate wild-type and Cxxc5^−/− mice and were maintained on a C57BL/6 background. Six-week-old Cxxc5^+/+ and Cxxc5^−/− mice were fed HFD for 8 weeks. Wild-type male C57BL/6 mice (KOATECH, Seoul, Korea) were fed HFD consisting of 60% calories from fat (Research Diet, D12492) for 8 weeks. To validate that the insulin resistance mouse model was successfully established, fasting glucose levels were assessed with a One Touch Ultra glucometer (LifeScan). Subsequently, each HFD-fed mouse with a fasting glucose level higher than 16.7 mmol/L was orally administered A3334 (25 mg kg^−1), sitagliptin (50 mg kg^−1), or metformin (100 mg kg^−1) each day for 5 days at weeks 8 and 12. After the removal of the drugs, mice were maintained for 3 weeks on the HFD. To monitor pancreas regeneration, six-week-old Cxxc5^+/+ and Cxxc5^−/− mice were fed an HFD as above. After dietary treatment for 4 weeks, the mice were intraperitoneally injected with STZ (50 mg/kg/d) for 1 week and the control group were injected with saline. After 2 weeks, Cxxc5^+/+ mice were administered A3334 (25 mg kg^−1) and sitagliptin (50 mg kg^−1) per day by oral gavage for 4 weeks. For GTT or ITT, mice were injected with D-glucose (1.5 g/kg body weight) after overnight starvation or human insulin (0.75 units/kg body weight) after 4 h starvation, respectively. Tail blood was drawn at 0, 15, 30, 60, 120, 180 min intervals and blood glucose level was measured with a One Touch Ultra glucometer. All mice were maintained under temperature-controlled and light-controlled (standard 12 h light/dark cycle) conditions and provided with food and water ad libitum. All protocols were reviewed and approved by the Institutional Review Board of Severance Hospital, Yonsei University College of Medicine (09-013).
Blood chemistry. Total blood of mice was collected by cardiac puncture after fasting. The blood was allowed to clot for 30 min and was then centrifuged for 10 min at 1,000×g to obtain supernatant to measure metabolic parameters. ELISA assay kits were used to assess serum insulin (Millipore), serum FFA (Cayman Chemical), serum adiponectin (ABclonal). The insulin function test was evaluated by HOMA-IR and was calculated as fasting plasma glucose (m mol/l)×fasting serum insulin (mU/l)/22.5. Serum chemistry variables included total cholesterol, HDL-cholesterol, glucose, TG, ALT, AST, ALP, Ca, and Mg concentration. The calibration of serum parameters was performed using the quality control card supplied with the FUJI DRI-CHEM slides whenever slides from a new lot were used. […]
Hematoxylin and eosin (H&E) staining. Dissected tissues were fixed in 4% neutral paraformaldehyde and embedded in paraffin. The paraffin sections were cut at a thickness of 4 μm and subjected to H&E staining. The adipocyte cell size was measured in 20 randomly chosen microscopic areas from 3 independent animals using a Nikon bright-field optical microscope (Nikon TE-2000U). The average adipocyte size was determined using Image J software. […]
Metabolic monitoring and body composition. Metabolic performance (energy intake and energy expenditure) was studied using a PHENOMASTER automated combined indirect calorimetry system (TSE system GmBH). The mice were first acclimated for 24 h in a metabolic chamber and were provided with food and water. They were then subsequently evaluated for 3 days to measure oxygen consumption (VO2), carbon dioxide production (VCO2), ambulatory counts, and respiratory exchange ratio. An LF50 body composition analyzer (Bruker) was used to determine body composition (lean body mass and total body fat) of the mice. The temperature for these studies remained at 22° C., with a 12 h light/dark cycle. Standard in-house software was used for energy expenditure.
Quantitative real-time polymerase chain reaction (PCR). […]

HFD-induced obese mice = test: HFD-induced obese mice, oral administration during 16 weeks of HFD; format: in vivo; conditions: HFD 16 weeks, 25 mpk oral
Protocol: Anti-obesity effects of […], a small molecule […] inhibitor. Referring now to FIG. 34, C57BL/6N mice were fed HFD for 16 weeks with or without oral administration of 25 mpk […] or Orlistat. Orlistat is an anti-obesity drug that is thought to act by limiting the absorption of fats from the diet (e.g., a lipase inhibitor). […] Referring now to FIG. 35, The C57BL/6N mice were grown with HFD for 16 weeks with or without oral administration of 25 mpk of […], […], and I3O. […] The increase in adipocyte cell sizes and enhancement of inflammation (evaluated by crown like structures; blue; FIG. 35B) were suppressed by treatment with […] in the HFD mice.

Wnt/β-catenin signaling = Wnt/β-catenin signaling (TOPFlash) reporter luciferase assay in HEK293-TOP cells; format: cell-based
Protocol: Luciferase reporter assay. HEK293-TOP cells were seeded in 24-well plates. Cells were treated with A3334 at a concentration of 1, 5, and 10 μM for 24 h. Total cell lysates were extracted with 35 μl of 5× Reporter Lysis Buffer per well according to the manufacturer's instructions (Promega). A total of 35 μl of luciferin was added and luciferase activity was measured using a Fluorstar Optima microplate reader.
Wnt/β-catenin signaling reporter luciferase assay. HEK293-TOP cells were seeded were seeded in 96-well plates at a density of 2.5×10^4 cells per well. Cells were treated with individual chemicals at a concentration of 1, 5, 10 µM for 24 h. Total cell lysates were extracted with 25 µl of 5× Reporter Lysis Buffer per well according to the manufacturer's instruction (Promega, Madison, WI). Luciferin (25 µl) was added and luciferase activity was measured using FLUOSTAR (BMG labtech, Offenburg, Germany).

CXXC5-DVL interaction [2] = biological target: T1, CXXC5-DVL interaction; test: Dvl-CXXC5 in vitro binding assay, (PTD-DBMP)-(PZD-DVL), concentration dependent; conditions: FIG. 33A-33C; unit inferred; read-out: IC50, in vitro (PTD-DBMP)-(PZD-DVL) binding analyses

Compound: CN(C)c1ccc(O)c2c1C[C@H]1C[C@H]3[C@H](N(C)C)C(O)=C(C(N)=O)C(=O)[C@@]3(O)C(O)=C1C2=O [Compound 16]
- inhibition at 30 µM (CXXC5-DVL interaction [1]): 87.9%

Compound: COC(=O)C1=C(C)N/C(=C/c2cc(C)n(-c3ccccc3F)c2C)C1=O [Compound 4]
- inhibition at 30 µM (CXXC5-DVL interaction [1]; 30 μM): 87.6%

Compound: N[C@@H](CC(=O)N1CCn2c(nnc2C(F)(F)F)C1)Cc1cc(F)c(F)cc1F [sitagliptin, reference compound]
- hepatosteatosis (H&E) (MCD-induced NASH mice): also reduced hepatosteatosis, but revealed only marginal effects compared to A3334
- mRNA of M1 and M2 macrophage marker genes in epiWAT (HFD-fed mice): did not significantly change the expression of inflammation or the Wnt/β-catenin signaling target genes
- serum ALT, AST, FFA (and TG) (HFD-fed mice): weakly reduced by SITA even at a higher concentration
- levels of GTT/ITT, total cholesterol, fasting glucose, triglyceride, FFAs in serum (HFD-fed mice): weaker than those of A3333
- hepatic steatosis (lipid droplets, fatty liver, hepatic TG) (HFD-fed mice; H&E, Oil Red O): exhibited only a marginal effect
- Wnt/β-catenin target genes and lipogenesis/inflammation genes in white adipose tissue (HFD-fed mice; mRNA): did not significantly change the expression of inflammation or the Wnt/β-catenin signaling target genes
- lipogenesis and gluconeogenesis genes in liver (HFD-fed mice; mRNA): reduced by both A3334 and SITA, but A3334 showed better effectiveness
- persistence of fasting glucose control after end of treatment (HFD-fed mice): this prolonged effect was not shown; also recorded: showed an increased fasting glucose level after their second application
- fasting glucose level (HFD-fed mice): reduced similarly by treatment with all of these compounds at initial applications

Compound: COc1ccc(C)cc1/N=N/c1ccc(O)c2nc(/C=N/O)ccc12 [Compound 1]
- inhibition at 30 µM (CXXC5-DVL interaction [1]; 30 μM): 85.2%

Compound: COc1ccc(C2CC(=O)C3=C(C2)Nc2onc(C)c2C3c2ccc(O)c(O)c2)cc1OC (stereo not shown) [Compound 7]
- inhibition at 30 µM (CXXC5-DVL interaction [1]; 30 μM): 90.9%

Compound: O=c1c(O)c(-c2cc(O)c(O)c(O)c2)oc2cc(O)cc(O)c12 [Compound 13]
- inhibition at 30 µM (CXXC5-DVL interaction [1]; 30 μM): 85.2%

Compound: CN1CCc2cc(O)cc3c2[C@H]1Cc1ccc(O)c(O)c1-3 [Compound 9]
- inhibition at 30 µM (CXXC5-DVL interaction [1]; 30 μM): 89.4%

Compound: CCN(CC)S(=O)(=O)c1ccc(OC)c(Nc2cc(-c3ccccc3)nc(C)n2)c1 [Compound 6]
- inhibition at 30 µM (CXXC5-DVL interaction [1]; 30 μM): 58.2%

Compound: Cc1cc(C)c2c(O)nc(SCC(=O)c3ccc(O)c(O)c3)nc2n1 [Compound 3]
- inhibition at 30 µM (CXXC5-DVL interaction [1]; 30 μM): 88.2%

Compound: O=c1c(O)c(-c2ccc(O)cc2O)oc2cc(O)cc(O)c12 [Compound 15]
- inhibition at 30 µM (CXXC5-DVL interaction [1]; 30 μM): 85.4%

Compound: COc1ccc(C2CC(C(F)(F)F)n3ncc(C(=O)O)c3N2)cc1OC (stereo not shown) [Compound 2]
- inhibition at 30 µM (CXXC5-DVL interaction [1]; 30 μM): 90.6%

Compound: O=C1Nc2ccccc2/C1=C1/Nc2ccccc2/C1=N\O [Compound I3O, Indirubin-3′-oxime, reference compound]
- hepatosteatosis (H&E) (MCD-induced NASH mice): also reduced hepatosteatosis, but revealed only marginal effects compared to A3334
- adipocyte cell size and inflammation (crown like structures) (HFD-induced obese mice): showed reduction in adipocyte size and anti-inflammatory effects, but those effects were lower when compared to that of the A3334 treatment
- inhibition of CXXC5-DVL interaction (in words) (CXXC5-DVL interaction [1]): identified as initial hits
- inhibition at 30 µM (CXXC5-DVL interaction [1]; 30 μM): 89%
- inhibition of CXXC5-DVL interaction (in words) (CXXC5-DVL interaction [1]; listed as #12): repeatedly identified as CXXC5-DVL inhibitors
- Wnt/β-catenin (TOPFlash) reporter activity (Wnt/β-catenin signaling): showed effectiveness in the activation of Wnt/β-catenin pathway
- fasting glucose level (HFD-fed mice): also reduced fasting glucose. However, effects of A3051 and I3O is similar to or little bit weaker than SITA
- pIC50 (CXXC5-DVL interaction [2]): 7.00

Compound: Oc1cc(O)cc(/C=C/c2ccc(O)c(O)c2)c1 [Compound 17]
- inhibition at 30 µM (CXXC5-DVL interaction [1]; 30 μM): 85.2%

Compound: O=c1cc(O)cc(/C=C/c2ccc(O)c(O)c2)o1 [Compound 11]
- inhibition at 30 µM (CXXC5-DVL interaction [1]; 30 μM): 90%

Compound: CN(C)C(=N)N=C(N)N [metformin, reference compound]
- serum ALT, AST, FFA (and TG) (HFD-fed mice): increased by metformin
- levels of GTT/ITT, total cholesterol, fasting glucose, triglyceride, FFAs in serum (HFD-fed mice): weaker than those of A3333
- persistence of fasting glucose control after end of treatment (HFD-fed mice): this prolonged effect was not shown; also recorded: showed an increased fasting glucose level after their second application
- fasting glucose level (HFD-fed mice): reduced similarly by treatment with all of these compounds at initial applications

Compound: NC(Cc1cc(O)c(O)cc1O)C(=O)O (stereo not shown) [Compound 10]
- inhibition at 30 µM (CXXC5-DVL interaction [1]): 90.3%

Compound: O=C(O)C1Sc2[nH]c(=O)sc2C2c3cc(Br)cc(Br)c3OC(=O)C12 (stereo not shown) [Compound 5]
- inhibition at 30 µM (CXXC5-DVL interaction [1]; 30 μM): 90.5%

Compound: CC(N)(Cc1ccc(O)c(O)c1)C(=O)O (stereo not shown) [Compound 14]
- inhibition at 30 µM (CXXC5-DVL interaction [1]; 30 μM): 85.2%

Compound: O=C(OCCN1CCOCC1)C1(c2ccccc2)CCCCC1 [Compound 18]
- inhibition at 30 µM (CXXC5-DVL interaction [1]; 30 μM): 86.8%

Reference: patent US20240425457A1, “COMPOSITIONS AND METHODS FOR SUPPRESSING AND/OR TREATING METABOLIC DISEASES AND/OR A CLINICAL CONDITION THEREOF” (CK Biotech Inc., priority 2018, published 2024)
